From patent US20020006406A1, “METHOD FOR THE TREATMENT OF STAPHYLOCOCCAL DISEASE” (priority 1997, published 2002) come the findings set out here.

Marks after values point to notes of the source that are not given here.

Assay [1] deals with Staphylococcus epidermidis. Kind of assay: MIC against Staphylococcus epidermidis clinical isolates. Format: cell-based. To be noted: 11 of 13 clinical isolates of S. epidermidis tested. An excerpt:
Approved Standard M7-A3. Methods for dilution antimicrobial susceptibility tests for bacteria that grow aerobically—Third edition. National Committee for Clinical Laboratory Standards, Villanova, Pa.; National Committee for Clinical Laboratory Standards, 1992. Tentative Guideline M26-T. Methods for determining bactericidal activity of antimicrobial agents. National Committee for Clinical Laboratory Standards, Villanova, Pa.].

Assay [2] has as its system methicillin-resistant clinical isolates of S. aureus and 27619VR. The assay is described as follows: Time-kill experiment, four S. aureus strains (FIG. 2). Format: cell-based. The note with it: 1 μg/ml; three methicillin-resistant clinical isolates and 27619VR; 2×10^6 to 9×10^7 CFU/ml. How it is done: In another experiment (FIG. 2), three different methicillin-resistant clinical isolates of S. aureus, and a fourth strain, 27619VR, a laboratory-derived ‘VISA’ strain (i.e., with intermediate resistance to vancomycin) derived from a methicillin-resistant clinical isolate, were inoculated into cation-adjusted Mueller-Hinton broth (Becton Dickinson) and grown at 37° C. overnight. They were then diluted into fresh broth and incubated at 37° C. with gentle shaking until they were estimated to have reached the logarithmic stage of growth. […] Lysostaphin was added to each culture at the concentration of 1 μg/ml. At intervals, samples were withdrawn, serially diluted in 0.9% NaCl, and plated by spreading on Mueller-Hinton agar (Becton Dickinson). The agar plates were incubated for 48 hours at 37° C. and the colonies were counted manually.

Assay [3] deals with S. aureus. Kind of assay: MIC by broth macrodilution in glass tubes. Format: cell-based. As for the experimental part: In this experiment, MICs were determined by broth macrodilution in 1 ml final volumes in glass tubes. Otherwise, the methodology was as described above.
Assay [4] concerns methicillin-resistant VISA strain of S. aureus. Kind of assay: Experimental endocarditis in rabbits, methicillin-resistant VISA strain. Format: in vivo. As for the experimental part:
Aortic valve endocarditis was established in New Zealand white rabbits weighing approximately 3 kg. Rabbits were anesthetized and the right carotid artery surgically exposed and cannulated with a polyethylene catheter which was advanced into the left ventricle of the heart. After at least 24 h, the rabbits were infected intravenously with 10^6-10^7 cells of a methicillin-resistant S. aureus strain (MRSA 27619). Twenty-four hours later, the animals were randomly assigned to different treatment groups; untreated control (9 rabbits); positive control, vancomycin 30 mg/kg twice daily (15); lysostaphin 5 mg/kg three times daily (11); lysostaphin 5 mg/kg once daily (10); lysostaphin 5 mg/kg once daily+vancomycin 30 mg/kg twice daily (11). Any rabbits whose infection was not confirmed by pre-treatment blood culture were eliminated.
All treatments were intravenous and were carried out for three days. The state of health of the rabbits was assessed at intervals. The rabbits were sacrificed 18 h after the last treatment. Aortic vegetations were removed and weighed and processed to determine the number of viable bacteria, expressed as log,10CFU/gram. The limit of detection is 10^2 CFU/gram (log10CFU/gram=2.0). The mean titers of bacteria per gram were compared by one-way analysis of variance. The Student-Newman-Keuls test was used to adjust for multiple comparisons.
Strains that are both methicillin-resistant and resistant to vancomycin are a newly emerging problem. A variant strain of this type was selected after cycles of growth in glycopeptide-containing medium. The vancomycin MIC for the resulting strain was 8 μg/ml, as reported also for naturally occurring VISA strains isolated from patients in the U.S. and Japan. (Centers for Disease Control and Prevention, Morbidity and Mortality Weekly Report 1997; 46:813-815). Staphylococcal isolates are considered to be susceptible to vancomycin if the MIC is less than or equal to 4 μg/ml and to be completely resistant if the MIC is greater than or equal to 32 μg/ml (National Committee for Clinical Laboratory Standards, 1993. Approved Standard M2-A5. Performance standards for antimicrobial disk susceptibility tests—Fifth edition. National Committee for Clinical Laboratory Standards, Villanova, Pa.)

In the case of “lysostaphin: recombinant lysostaphin enzyme from fermentation of B. sphaericus; majority component lacks the two N-terminal amino acids of the published sequence”, the MIC (commonly the least concentration at which growth counts as inhibited) in assay [1] is ≤ 8000 ng/mL; in assay [3] (strain AG402 (clinical isolate)), 8 ng/mL; in assay [3] (strain AG404 (clinical isolate, methicillin-resistant)), 8 ng/mL; in assay [3] (strain AG414) it was 4 ng/mL; in assay [3] (strain AG417), 4 ng/mL. Besides, the “killing of strains in time-kill experiment” value in assay [2] is “rapidly killed”. The figures for the “CFU/g vegetation (expressed as log10 of the mean)” value in assay [4] (5 mg/kg three times daily) and in assay [4] (15 mg/kg twice daily) were 6.29 log10 CFU/g and 4.0** log10 CFU/g, respectively. The sterile/total vegetations in assay [4] (5 mg/kg three times daily) is on record as 2/10; in assay [4] (15 mg/kg twice daily) it was 0/5.
